Values belong to the molecule of their own block, whether it stands above or below them.
What was measured:
[1] = Induction of apoptosis in human U-87 MG cells; assay type: functional, U-87MG ATCC
HeLa [2] = assay: Induction of apoptosis in human HeLa cells; assay type: functional
[3] = Binding affinity to TAR mRNA assessed as dissociation constant by ITC analysis
[4] = Displacement of Tat from TAR mRNA by FRET analysis
[5] = Inhibition of miR-21 (unknown origin) by luciferase reporter assays relative to control; conditions: concentration not given here
[6] = Inhibition of miR-21 (unknown origin) maturation assessed as reduction in pre-miR-21 expression at 10 uM by RT-PCR analysis relative to control
[7] = Binding affinity to Precursor microRNA-372 (unknown origin) assessed as dissociation constant
[8] = Inhibition of Precursor microRNA-372 (unknown origin) assessed as inhibition of Dicer-induced pre-miR-372 cleavage
[9] = Downregulation of miR-122 expression in human Huh-7 cells at 10 uM incubated for 48 hrs by RT-PCR analysis relative to control; assay type: functional
Hepatitis C virus = assay: Antiviral activity against HCV JFH-1 infected in human Huh-7 cells assessed as reduction in viral replication measured after 48 hrs by RT-PCR analysis relative to control; assay type: functional, Hepacivirus hominis; parameters: scale not given: the % may be the effect or the level left
HEK293 [10] = assay: Inhibition of miR-125a in human HEK293 cells relative to control; assay type: cell-based; conditions: dose or concentration not given here
[11] = Binding affinity to miR-21 (unknown origin) assessed as dissociation constant by fluorescence based analysis
[12] = Downregulation of alpha-Synuclein level in human SH-SY5Y cells at 5 uM relative to control; assay type: functional
[13] = Binding affinity to miR-18a (unknown orgin) assessed as dissociation constant
[14] = Inhibition of miR-18a (unknown orgin) production
[15] = Inhibition of miR-21 (unknown origin) at 1 uM by differential scanning fluorometry analysis relative to control
HEK293 [16] = assay: Inhibition of miR-125a in human HEK293 cells assessed as increase in mature miR-21 level at 50 uM relative to control; assay type: cell-based
HEK293 [17] = assay: Inhibition of miR-125a in human HEK293 cells assessed as increase in pre miR-21 level at 50 uM relative to control; assay type: cell-based
[18] = Binding affinity to HIV-1 mRNA assessed as dissociation constant; parameters: species or system Human immunodeficiency virus 1
[19] = Induction of mRNA mediated IPRF assessed as increase in frame shifting efficiency at 10 uM relative to control
[20] = Induction of mRNA mediated IPRF assessed as increase in frame shifting efficiency at 10 uM in presence of M2-VPK sequence relative to control
HeLa [21] = assay: Induction of mRNA mediated IPRF in human HeLa cells assessed as increase in frame shifting efficiency at 10 uM in presence of F-VPK sequence relative to control; assay type: cell-based
HeLa [22] = assay: Induction of mRNA mediated IPRF in human HeLa cells assessed as increase in frame shifting efficiency at 0.3 uM in presence of M1-FPK sequence relative to control; assay type: cell-based
HeLa [23] = assay: Induction of mRNA mediated IPRF in human HeLa cells assessed as increase in frame shifting efficiency at 0.3 uM in presence of M2-FPK sequence relative to control; assay type: cell-based

Structure (SMILES): C#CCNC(=O)c1ccc(NC(=O)c2ccccc2Br)cc1
Activity [1]: 13%
Activity (HeLa [2]): 24%

Structure (SMILES): O=C(Nc1ccc2ccccc2c1)c1ccc(Cl)cc1Cl
Activity [9]: 72%
Activity (Hepatitis C virus): 48%

Structure (SMILES): CCn1cc(C(=O)NCc2ccccc2)c(=O)c2cc(F)c(N3CCNCC3)nc21
inhibition (HEK293 [10]): 30%

Structure (SMILES): CNC(=O)c1cc(Oc2ccc(NC(=O)Nc3ccc(Cl)c(C(F)(F)F)c3)c(F)c2)ccn1 [REGORAFENIB]
Kd [11]: 730 nM

Structure (SMILES): c1cc(C2=NCCN2)ccc1Oc1ccc(-c2nc3ccc(C4=NCCN4)cc3[nH]2)cc1
Activity [12]: 40%

Structure (SMILES): COc1ccc(NCC(O)Cn2c3ccc(Br)cc3c3cc(Br)ccc32)cc1 (stereo not drawn)
inhibition [15]: 59%

Structure (SMILES): CCn1cc(C(=O)O)c(=O)c2cc(F)c(N3CCNCC3)nc21
inhibition (HEK293 [16]): 150%
inhibition (HEK293 [17]): 100%
inhibition (HEK293 [10]): 100%

The next lines start with results.

Kd [3]: 6700 nM
DC50 [4]: 10600 nM
Structure (SMILES): CN(C)CCCn1cc(CNC(=O)c2csc(NC(=O)c3csc(NC(=O)c4csc(N)n4)n3)n2)nn1

inhibition [5]: 11%
inhibition [6]: 78%
Structure (SMILES): C#CCNC(=O)c1ccc(/N=N/c2ccccc2)cc1

Kd [7]: 150 nM
IC50 [8]: 1060 nM
Structure (SMILES): CNc1ccc(C2c3ccccc3N=C(NCCCNCCCCNCCCN)C2(C)C)cc1 (stereo not drawn)

Kd [13]: 32000 nM
IC50 [14]: 10000 nM
Structure (SMILES): CN1CCN(c2ccc(-c3ccc4nc(-c5cc(C(C)(C)C)c(OCCCC(=O)NCCCN=[N+]=[N-])c(C(C)(C)C)c5)[nH]c4c3)cc2)CC1

inhibition [15]: 47%
Structure (SMILES): Cc1ccccc1NCC(O)Cn1c2ccc(Br)cc2c2cc(Br)ccc21 (stereo not drawn)

Kd [18]: 2400 nM
Structure (SMILES): CC(=O)Nc1nc(-c2cccc(NC(=O)C(CNC(=O)[C@@H](N)CCCNC(=N)N)NC(=O)[C@@H](N)CCCNC(=N)N)c2)cs1 (stereo partly drawn)

Activity [19]: 13%
Activity [20]: 15%
Structure (SMILES): Cc1ccc2ccc(NC(=O)CCN(CCCCCCCCN(CCC(=O)Nc3ccc4ccc(C)nc4n3)CCC(=O)Nc3ccc4ccc(C)nc4n3)CCC(=O)Nc3ccc4ccc(C)nc4n3)nc2n1
Activity (HeLa [21]): 21%
Activity (HeLa [22]): 0.35%
Activity (HeLa [23]): 0.32%

Kd [3]: 540 nM
DC50 [4]: 1500 nM
Structure (SMILES): CN(C)CCCn1cc(CNC(=O)Cc2csc(NC(=O)Cc3csc(N)n3)n2)nn1

From ChEMBL document CHEMBL5226309, “Synthetic RNA Modulators in Drug Discovery” (J Med Chem, 2021)
